The values below come from US9518026B2, “5-aminopyrazole-4-carboxamide inhibitors of CDPK1 from T. gondii and C. parvum” (UNIVERSITY OF WASHINGTON THROUGH ITS CENTER FOR …, priority 2013, dated 2016).

What is called EC50 is the concentration needed to bring the measured effect to its halfway point. As a reminder, the IC50 is the concentration that gives 50% inhibition. The AUC is the area under the concentration-time curve, a measure of exposure. A low value points to low exposure. A word on the Cmax: it is the highest concentration seen after dosing. In general, Tmax refers to the time at which the peak concentration occurs. Usually Ki stands for a measure of affinity in units of concentration, obtained from inhibition or displacement. A low value points to tighter binding. The Papp is a coefficient for how fast a substance crosses the barrier.

SMILES strings stand for the structures. Like-named read-outs stand apart in the source and are kept apart here.

The nature of one series: Cell toxicity in HepG2. To be noted: human, HepG2 cells (hepatocellular carcinoma); Table 4. The class given is cell-based. The protocol: All compounds were assayed for inhibition of TgCDPK1 and CpCDPK1 and on the small-gatekeeper (Thr) human kinases, Src and Abl. Human cell toxicity was evaluated in two human cell lines, HepG2 (hepatocellular carcinoma) and CRL8155 (lymphoblast, spleen). hERG inhibition has been associated with long Q-T syndrome (cardiotoxicity), and the compounds were evaluated for hERG inhibitory activity.

Another series deals with C. parvum. Description: Inhibition of C. parvum proliferation. To be noted: Cryptosporidium parvum, read-out: Inhibit Parasite Prolif. (EC50, μM) C. parvum. Format: cell-based.
The nature of series [1]: Cytotoxicity against CRL8155 cell line. Format: cell-based. As to conditions: human, CRL8155 cells (lymphoblast, spleen).
In a further series the target is hERG (Homo sapiens (Human), UniProt Q12809). Put plainly: biochemical. The class given is binding.
The nature of series [2]: Pharmacokinetic studies in mice. As to conditions: mouse, in vivo, 10 mg/kg.
A further series concerns T. gondii. Put plainly: Inhibition of T. gondii cell proliferation. The class given is cell-based. To be noted: Toxoplasma gondii.
The target in the next series is Src (Homo sapiens (Human), UniProt P12931). Put plainly: biochemical.
The next series deals with TgCDPK1 (Toxoplasma gondii, UniProt Q9BJF5). Put plainly: biochemical.
The next series addresses Abl (Homo sapiens (Human), UniProt P00519). Description: biochemical.
The target in another series is CpCDPK1 (Cryptosporidium parvum (strain Iowa II), UniProt A3FQ16). Put plainly: biochemical.
Another series deals with Kdr (Homo sapiens (Human), UniProt P35968). Put plainly: Kinase panel selectivity: Kdr. The class given is biochemical.
In series [3] the test system is 80 human protein kinases (hPKs). Put plainly: AbbVie panel of 80 human protein kinases. The class given is biochemical. As to conditions: at levels up to 3 μM; tested by AbbVie.
For a further series, the system named is C. parvum Iowa strain. Description: C. parvum infection in mice (beige/SCID mouse model). To be noted: oral gavage 20 mg/kg 8 AM and 40 mg/kg 5 PM, days 5-14 after infection; each time point except Days 0 and 3; p≦0.05.
Series [4] in a line: Oral availability (comparison of compound 39 and compound 9). Format: in vivo. As to conditions: compared with compound 9 (1294).
Series [5] deals with T. gondii Type 1 RH strain tachyzoites. Description: T. gondii infection in mice. As to conditions: CF-1 mice, peritoneal lavage day 8. Format: in vivo. From the text: 1×10^5 T. gondii Type 1 RH strain tachyzoites expressing YFP were inoculated i.p. into 4-5 wk old female CF-1 mice (n=4). […] On day 8, the mice were killed, and underwent peritoneal lavage. T. gondii were enumerated via fluorescent microscopy and plotted, per mouse.

Another series is described as follows: Solubility at pH 6.5. The class given is physicochemical.
A short description of series [6]: Stability (comparison of compound 39 and compound 9).
Series [7] has as its system 24 off-target liabilities (e.g. ion channels, G-protein receptors). Description: 24 off-target liability screen. To be noted: tested by AbbVie.
A further series has as its system P-gp. Description: Diffusion across the MDCK-PGP monolayer. To be noted: dog, MDCK-MDR1; predicts CNS penetration. The class given is in vitro ADME.
For another series, the target named is Prkcn (Homo sapiens (Human), UniProt O94806). Description: Kinase panel selectivity: Prkcn. Format: biochemical.
[8] abbreviates: Table 2, read-out: Cytotoxicity (CRL8155) EC50.
The mark [9] stands for this setting: Table 4, read-out: Cell toxicity (EC50, μM) CRL 8155.
Where [10] appears, read: Table 1, KinaseGlo, Syntide 2 peptide substrate, read-out: CpCDPK1 IC50.
[11] abbreviates: Table 4, read-out: Enzyme Inhibition (IC50, μM) Cp CDPK1.
Setting [12] is: Table 3, read-out: Cytotoxicity (CRL8155) EC50.
[13] abbreviates: Enzyme Inhibition (IC50, μM) SrcKD, Table 4.

Sequence of CpCDPK1 (A3FQ16 1-538): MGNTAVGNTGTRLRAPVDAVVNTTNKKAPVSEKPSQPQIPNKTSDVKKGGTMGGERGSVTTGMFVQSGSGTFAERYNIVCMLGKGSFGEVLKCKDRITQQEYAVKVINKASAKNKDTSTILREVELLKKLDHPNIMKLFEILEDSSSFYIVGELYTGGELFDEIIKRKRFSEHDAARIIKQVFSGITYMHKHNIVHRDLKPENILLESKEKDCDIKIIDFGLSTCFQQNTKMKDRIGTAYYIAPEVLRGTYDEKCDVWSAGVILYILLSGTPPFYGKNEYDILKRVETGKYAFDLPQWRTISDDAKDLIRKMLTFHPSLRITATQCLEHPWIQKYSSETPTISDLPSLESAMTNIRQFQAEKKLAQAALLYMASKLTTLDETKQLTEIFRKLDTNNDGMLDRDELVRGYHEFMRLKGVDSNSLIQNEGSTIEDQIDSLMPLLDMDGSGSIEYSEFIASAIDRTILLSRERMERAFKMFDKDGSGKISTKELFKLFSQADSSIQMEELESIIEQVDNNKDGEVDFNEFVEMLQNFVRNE
Sequence of Src (P12931 270-523): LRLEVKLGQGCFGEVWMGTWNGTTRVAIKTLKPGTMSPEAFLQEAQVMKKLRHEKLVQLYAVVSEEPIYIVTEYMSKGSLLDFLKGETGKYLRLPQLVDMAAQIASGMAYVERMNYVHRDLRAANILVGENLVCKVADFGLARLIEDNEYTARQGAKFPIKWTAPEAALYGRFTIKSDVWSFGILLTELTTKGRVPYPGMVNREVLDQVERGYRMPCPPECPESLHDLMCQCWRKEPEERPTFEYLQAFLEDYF
Sequence of Abl (P00519 242-493): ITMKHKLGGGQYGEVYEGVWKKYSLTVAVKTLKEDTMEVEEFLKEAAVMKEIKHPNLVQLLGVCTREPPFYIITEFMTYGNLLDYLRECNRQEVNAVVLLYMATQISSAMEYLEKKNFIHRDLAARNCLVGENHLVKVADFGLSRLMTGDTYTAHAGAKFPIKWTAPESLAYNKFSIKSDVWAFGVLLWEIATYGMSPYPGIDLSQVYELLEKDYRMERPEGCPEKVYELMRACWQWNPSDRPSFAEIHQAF
Sequence of TgCDPK1 (Q9BJF5 1-507): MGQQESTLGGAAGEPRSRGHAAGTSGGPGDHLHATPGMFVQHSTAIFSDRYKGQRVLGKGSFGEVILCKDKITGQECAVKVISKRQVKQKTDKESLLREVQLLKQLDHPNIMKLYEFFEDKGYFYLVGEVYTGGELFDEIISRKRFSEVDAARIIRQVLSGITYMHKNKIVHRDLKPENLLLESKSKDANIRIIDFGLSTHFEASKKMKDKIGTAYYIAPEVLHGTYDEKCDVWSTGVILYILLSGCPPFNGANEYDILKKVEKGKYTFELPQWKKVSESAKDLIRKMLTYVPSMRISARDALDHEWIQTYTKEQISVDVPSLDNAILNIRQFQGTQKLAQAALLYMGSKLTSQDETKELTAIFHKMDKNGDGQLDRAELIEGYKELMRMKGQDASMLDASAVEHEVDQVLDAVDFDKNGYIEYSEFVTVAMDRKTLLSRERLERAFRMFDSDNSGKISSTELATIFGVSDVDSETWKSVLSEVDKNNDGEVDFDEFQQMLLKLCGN
Sequence of hERG (Q12809 whole entry): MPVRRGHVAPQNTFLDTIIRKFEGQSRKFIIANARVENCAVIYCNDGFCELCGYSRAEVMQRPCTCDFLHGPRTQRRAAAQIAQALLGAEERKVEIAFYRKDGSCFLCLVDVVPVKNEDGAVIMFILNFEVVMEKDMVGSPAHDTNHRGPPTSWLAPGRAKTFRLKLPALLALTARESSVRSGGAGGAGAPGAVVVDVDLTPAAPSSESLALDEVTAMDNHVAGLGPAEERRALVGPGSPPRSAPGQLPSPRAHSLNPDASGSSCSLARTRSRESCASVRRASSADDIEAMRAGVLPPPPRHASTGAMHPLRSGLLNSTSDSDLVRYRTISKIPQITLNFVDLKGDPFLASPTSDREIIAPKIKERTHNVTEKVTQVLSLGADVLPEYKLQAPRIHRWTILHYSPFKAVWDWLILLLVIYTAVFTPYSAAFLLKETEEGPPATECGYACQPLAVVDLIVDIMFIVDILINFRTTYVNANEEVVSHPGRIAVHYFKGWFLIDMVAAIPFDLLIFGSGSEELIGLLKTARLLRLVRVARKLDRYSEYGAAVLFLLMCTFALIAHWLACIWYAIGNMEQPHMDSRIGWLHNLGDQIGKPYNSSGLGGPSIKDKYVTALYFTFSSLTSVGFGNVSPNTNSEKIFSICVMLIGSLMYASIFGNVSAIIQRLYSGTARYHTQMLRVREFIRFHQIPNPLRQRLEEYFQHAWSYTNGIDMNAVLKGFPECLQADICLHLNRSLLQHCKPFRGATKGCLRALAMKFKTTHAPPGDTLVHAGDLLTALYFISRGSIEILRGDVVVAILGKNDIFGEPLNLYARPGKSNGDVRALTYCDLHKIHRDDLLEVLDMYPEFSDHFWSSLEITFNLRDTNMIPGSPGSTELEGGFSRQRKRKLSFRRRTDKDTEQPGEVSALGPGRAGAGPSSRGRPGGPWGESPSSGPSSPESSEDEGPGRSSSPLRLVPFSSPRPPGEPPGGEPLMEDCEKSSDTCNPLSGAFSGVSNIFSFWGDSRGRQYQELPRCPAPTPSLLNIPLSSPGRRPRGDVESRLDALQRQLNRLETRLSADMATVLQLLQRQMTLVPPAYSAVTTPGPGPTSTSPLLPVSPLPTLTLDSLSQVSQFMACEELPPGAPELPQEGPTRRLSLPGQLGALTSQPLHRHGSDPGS
Sequence of Kdr (P35968 20-1356, species assumed): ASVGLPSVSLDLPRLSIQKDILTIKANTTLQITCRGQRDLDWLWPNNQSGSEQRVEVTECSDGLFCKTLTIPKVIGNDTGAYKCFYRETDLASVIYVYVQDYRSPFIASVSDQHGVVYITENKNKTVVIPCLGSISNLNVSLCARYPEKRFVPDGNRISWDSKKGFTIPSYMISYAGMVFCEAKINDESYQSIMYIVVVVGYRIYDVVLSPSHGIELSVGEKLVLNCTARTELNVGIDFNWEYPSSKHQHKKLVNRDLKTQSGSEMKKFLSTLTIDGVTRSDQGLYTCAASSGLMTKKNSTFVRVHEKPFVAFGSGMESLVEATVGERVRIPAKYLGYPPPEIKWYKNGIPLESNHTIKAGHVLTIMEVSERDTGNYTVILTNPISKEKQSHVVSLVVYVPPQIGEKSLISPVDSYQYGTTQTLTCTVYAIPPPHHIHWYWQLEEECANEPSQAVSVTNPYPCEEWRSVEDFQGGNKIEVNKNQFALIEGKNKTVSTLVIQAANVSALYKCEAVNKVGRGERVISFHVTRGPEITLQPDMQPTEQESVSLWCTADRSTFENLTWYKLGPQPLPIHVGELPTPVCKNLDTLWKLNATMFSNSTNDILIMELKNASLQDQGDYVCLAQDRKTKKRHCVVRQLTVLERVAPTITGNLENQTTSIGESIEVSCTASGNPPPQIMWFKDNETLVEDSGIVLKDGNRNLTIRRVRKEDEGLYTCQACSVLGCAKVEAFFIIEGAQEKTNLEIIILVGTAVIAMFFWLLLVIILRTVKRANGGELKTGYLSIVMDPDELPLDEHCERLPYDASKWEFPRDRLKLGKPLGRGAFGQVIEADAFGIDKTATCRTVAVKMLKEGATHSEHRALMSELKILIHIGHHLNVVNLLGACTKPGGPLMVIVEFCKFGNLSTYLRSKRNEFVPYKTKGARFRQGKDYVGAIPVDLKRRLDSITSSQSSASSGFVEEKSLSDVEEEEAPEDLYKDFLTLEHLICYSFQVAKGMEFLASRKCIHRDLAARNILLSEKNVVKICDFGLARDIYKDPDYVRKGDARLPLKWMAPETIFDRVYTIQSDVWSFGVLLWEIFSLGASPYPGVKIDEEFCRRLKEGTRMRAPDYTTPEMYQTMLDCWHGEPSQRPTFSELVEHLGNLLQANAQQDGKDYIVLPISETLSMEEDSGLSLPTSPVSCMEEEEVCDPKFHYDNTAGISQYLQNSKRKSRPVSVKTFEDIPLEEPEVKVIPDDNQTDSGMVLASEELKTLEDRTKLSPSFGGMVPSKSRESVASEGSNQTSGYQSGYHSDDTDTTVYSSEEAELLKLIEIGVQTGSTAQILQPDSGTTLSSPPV
Sequence of Prkcn (O94806 whole entry, looked up, species assumed): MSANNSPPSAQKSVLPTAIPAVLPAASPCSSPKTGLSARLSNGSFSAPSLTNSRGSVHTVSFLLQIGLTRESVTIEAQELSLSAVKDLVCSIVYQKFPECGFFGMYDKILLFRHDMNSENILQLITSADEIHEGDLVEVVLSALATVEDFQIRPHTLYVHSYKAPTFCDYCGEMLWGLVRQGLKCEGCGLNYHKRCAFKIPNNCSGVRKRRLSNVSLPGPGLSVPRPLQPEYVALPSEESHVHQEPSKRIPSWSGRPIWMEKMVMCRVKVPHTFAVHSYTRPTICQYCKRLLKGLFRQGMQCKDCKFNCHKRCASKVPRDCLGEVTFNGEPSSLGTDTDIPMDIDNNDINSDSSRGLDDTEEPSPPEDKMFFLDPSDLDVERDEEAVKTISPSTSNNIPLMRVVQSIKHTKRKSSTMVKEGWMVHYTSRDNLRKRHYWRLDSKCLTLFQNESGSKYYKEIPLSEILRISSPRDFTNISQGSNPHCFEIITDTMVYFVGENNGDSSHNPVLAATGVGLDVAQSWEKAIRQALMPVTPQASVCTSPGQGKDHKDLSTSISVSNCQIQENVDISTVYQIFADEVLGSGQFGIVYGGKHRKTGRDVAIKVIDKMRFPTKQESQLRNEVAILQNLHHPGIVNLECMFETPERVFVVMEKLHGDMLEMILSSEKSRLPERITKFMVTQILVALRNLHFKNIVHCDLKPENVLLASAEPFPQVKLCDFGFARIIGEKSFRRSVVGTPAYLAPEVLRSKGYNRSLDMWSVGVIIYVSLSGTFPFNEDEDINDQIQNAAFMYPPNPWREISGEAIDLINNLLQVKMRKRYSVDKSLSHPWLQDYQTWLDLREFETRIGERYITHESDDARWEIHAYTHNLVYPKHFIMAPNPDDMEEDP

Regarding `CCOc1ccc2cc(-c3nn(C(C)(C)C)c(N)c3C(N)=O)ccc2c1` [Compound 3, 5-amino-1-tert-butyl-3-(6-ethoxynaphthalen-2-yl)-1H-pyrazole-4-carboxamide], the EC50 in the series “Cell toxicity in HepG2” was above 40 µM; in the series on C. parvum, 0.05 µM.
`COc1ccc2cc(-c3nn(C(C)(C)C)c(N)c3C(N)=O)ccc2c1` [Compound 25, 5-amino-1-(tert-butyl)-3-(6-methoxynaphthalen-2-yl)-1H-pyrazole-4-carboxamide]: the EC50 in the series “Cell toxicity in HepG2” is above 40 µM; in the series with C. parvum it was 0.1 µM; in [1] (setting [8]), above 40 µM; in series [1] (setting [9]), above 40 µM. The compound also displayed an IC50 against hERG above 10 µM. Also, the AUC in [2] is 5.94 µM·h. In addition, the Cmax in [2] was found to be 3.1 µM. Besides, in series [2], the Tmax is 30 min.
Consider `CCCOc1ccc2cc(-c3nn(C(C)(C)C)c(N)c3C(N)=O)ccc2c1` [Compound 26, 5-amino-1-(tert-butyl)-3-(6-propoxynaphthalen-2-yl)-1H-pyrazole-4-carboxamide], for which the EC50 in the series “Cell toxicity in HepG2” is above 40 µM; with T. gondii (Table 4, read-out: Inhibit Parasite Prolif. (EC50, μM) T. gondii), 0.37 µM; in series [1] (setting [9]) it was 38 µM. Moreover, the IC50 against Src is 7.8 µM; on TgCDPK1 (read-out: Enzyme Inhibition (IC50, μM) Tg CDPK1), 0.007 µM; on TgCDPK1 (read-out: TgCDPK1 IC50), 0.007 µM; on Abl it was above 10 µM; at CpCDPK1 (setting [10]), 0.01 µM; on CpCDPK1 (setting [11]), 0.01 µM.
On to `CCOc1ccc2cc(-c3nn(C(C)(C)C)c(N)c3C(N)=O)cnc2c1` [Compound 39, 5-amino-1-(tert-butyl)-3-(7-ethoxyquinolin-3-yl)-1H-pyrazole-4-carboxamide], for which the IC50 at Kdr was found to be 2.46 µM; against Prkcn, 1.11 µM. The figures for the Ki on Kdr and at Prkcn were 0.569 µM and 0.427 µM, respectively. Besides, the EC50 was above 40 µM in the series “Cell toxicity in HepG2”; 0.05 µM in the series with C. parvum (Table 4); above 30 µM in series [1] (setting [8]); above 30 µM in [1] (setting [12]); above 40 µM in [1] (setting [9]). Moreover, the “inhibition of human protein kinases (panel of 80 hPKs)” value in series [3] was “No hPKs were inhibited”. Moreover, in the series on C. parvum Iowa strain, the “oocysts shed in mouse stool, treated vs vehicle” value is on record as “the difference was significant”. Further, in series [4], the “oral availability (in words)” value is “higher oral availability”. The “mean parasite burden decreased” value worked out at 69% in series [5] (oral gavage 5/10 mg/kg [AM/PM] for 5 d) and 93% in series [5] (oral gavage 20/40 mg/kg [AM/PM] for 5 d). Also, the “solubility (in words)” value in the series “Solubility at pH 6.5” is listed as “good solubility”. Moreover, the “stability (in words)” value in [6] is given as “good stability”. Further, the “signal in 24 off-target liability screen” value in [7] is on record as “no signal was detected”. For the same compound, in the series on P-gp, the Papp was 56.3 ×10⁻⁶ cm/s. In addition, the “hERG inhibitory activity (in words)” value on hERG is “no hERG inhibitory activity”.
For `COc1ccc2cc(-c3nn(C(C)(C)C)c(N)c3C(N)=O)cnc2c1` [Compound 1543, 5-amino-1-tert-butyl-3-(7-methoxyquinolin-3-yl)-1H-pyrazole-4-carboxamide], the EC50 (in the series “Cell toxicity in HepG2”; in series [1] (setting [12]); in series [1] (setting [9])) was above 40 µM in each case. Also, the IC50 on Src (setting [13]) was above 10 µM; on Src (Src IC50 (μM), Table 3), above 30 µM; at Abl, above 10 µM; on CpCDPK1 (setting [10]), 0.003 µM; on CpCDPK1 (setting [11]), 0.003 µM.
As to `CCCOc1ccc2cc(-c3nn(C(C)(C)C)c(N)c3C(N)=O)cnc2c1` [Compound 1566, 5-amino-1-tert-butyl-3-(7-propoxyquinolin-3-yl)-1H-pyrazole-4-carboxamide], the EC50 in “Cell toxicity in HepG2” is above 40 µM; in [1] (setting [12]) it was above 40 µM; in series [1] (setting [9]) it was 16 µM. Further, the IC50 is above 10 µM on Src (setting [13]); above 10 µM at Src (Src IC50 (μM), Table 3); above 10 µM at Abl.
For `CCOc1ccc2cc(-c3nn(C4CCCCC4)c(N)c3C(N)=O)cnc2c1` [Compound 1571, 5-amino-1-cyclohexyl-3-(7-ethoxyquinolin-3-yl)-1H-pyrazole-4-carboxamide], the EC50 (in “Cell toxicity in HepG2”; in series [1] (setting [9])) was above 40 µM throughout. The IC50 against Src (setting [13]) was 10 µM; at Src (Src IC50 (μM), Table 3), above 10 µM; at Abl, above 10 µM; on CpCDPK1 (setting [10]) it was 0.005 µM.
Consider `CCOc1ccc2cc(-c3nn(C(C)C)c(N)c3C(N)=O)cnc2c1` [Compound 1572, 5-amino-3-(7-ethoxyquinolin-3-yl)-1-isopropyl-1H-pyrazole-4-carboxamide], for which the EC50 (in the series “Cell toxicity in HepG2”; in series [1] (setting [9])) was above 40 µM throughout. Besides, on CpCDPK1 (setting [10]), the IC50 worked out at 0.005 µM.
For `NC(=O)c1c(-c2cnc3cc(OC4CCC4)ccc3c2)nn(C2CCCC2)c1N` [Compound 1658, 5-amino-3-(7-cyclobutoxyquinolin-3-yl)-1-cyclopentyl-1H-pyrazole-4-carboxamide], the EC50 is 0.4 µM in the series on T. gondii (Table 3, read-out: T. gondii EC50) and above 40 µM in series [1] (setting [12]). Besides, the IC50 at Src is above 10 µM; on TgCDPK1 (Table 1, KinaseGlo, Syntide 2 peptide substrate, read-out: TgCDPK1 IC50), 0.012 µM; on CpCDPK1 (setting [10]), 0.004 µM.
